In paper PMC9578392, “Safety, Tolerability, and Pharmacokinetics of the Novel Antiviral Agent Ensitrelvir Fumaric Acid, a SARS-CoV-2 3CL Protease Inhibitor, in Healthy Adults” (Antimicrobial Agents and Chemotherapy, 2022):

What was measured:
[1] = test system: Omicron; design: method as in PMID 35081300; settings: cited from earlier work
[2] = test system: CYP3A; assay: Drug-drug interaction with midazolam (cohort G)
[3] = in vivo; cited from earlier work
[4] = midazolam 2 mg, ensitrelvir 750/250 mg

CC(C)C(=O)OC[C@H]1O[C@@H](n2ccc(NO)nc2=O)[C@H](O)[C@@H]1O [molnupiravir]
efficacy against Omicron [1]: efficacious

Cc1ncc2n1-c1ccc(Cl)cc1C(c1ccccc1F)=NC2 [Midazolam, midazolam]
increase of AUC0-last of midazolam coadministered with ensitrelvir vs midazolam alone ([2]; ensitrelvir 750/250 mg, day 6): 7.23 fold
increase of Cmax of midazolam coadministered with ensitrelvir vs midazolam alone ([2]; ensitrelvir 750/250 mg, day 6): 2.78 fold
half-life ([2]; human, in vivo): 9.13 h
AUC(0-inf) ([2]; human, in vivo, 2 mg): 35.7 ng·h/mL
AUC(0-t) ([2]; human, in vivo, 2 mg): 34.7 ng·h/mL
Cmax ([2]; human, in vivo, 2 mg): 16.2 ng/mL
MRT ([2]; human, in vivo, 2 mg): 4.11 h
half-life ([2]; human, in vivo, 2 mg): 4.36 h
k el ([2]; human, in vivo, 2 mg): 4.42e-05 s⁻¹
AUC0-inf, GLS mean (90% CI) ratio (midazolam with ensitrelvir/midazolam alone) [2, 4]: 8.8002 (6.7061/11.5484)
AUC0-last, GLS mean (90% CI) ratio (midazolam with ensitrelvir/midazolam alone) [2, 4]: 7.2293 (5.5817/9.3632)
Cmax, GLS mean (90% CI) ratio (midazolam with ensitrelvir/midazolam alone) [2, 4]: 2.7763 (2.3341/3.3022)
MRT, GLS mean (90% CI) ratio (midazolam with ensitrelvir/midazolam alone) [2, 4]: 2.8734 (2.5380/3.2530)
t1/2,z, GLS mean (90% CI) ratio (midazolam with ensitrelvir/midazolam alone) [2, 4]: 2.0954 (1.9490/2.2529)

CCC(CC)COC(=O)[C@H](C)N[P@](=O)(OC[C@H]1O[C@@](C#N)(c2ccc3c(N)ncnn23)[C@H](O)[C@@H]1O)Oc1ccccc1 [remdesivir]
efficacy against Omicron [1]: efficacious

CC(C)(C)[C@H](NC(=O)C(F)(F)F)C(=O)N1C[C@H]2[C@@H]([C@H]1C(=O)N[C@H](C#N)C[C@@H]1CCNC1=O)C2(C)C [nirmatrelvir]
elimination in humans [3]: rapid
